Experimental data: patent US20240174618A1, “SUBSTITUTED (2-HETEROARYLOXYPHENYL)SULFONATES, SALTS THEREOF AND THEIR USE AS HERBICIDAL AGENTS” (Bayer Aktiengesellschaft, priority 2021, published 2024)

Legend:
Format in all cases: in vivo
[1] = test system: Poa annua (POAAN); test: A. Herbicidal pre-emergence efficacy, POAAN
Summary of the method: (§1)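 Applied before emergence onto covering soil at rates of 1280 g/ha or less, using 600 L/ha spray water with 0.5% additive. Scoring: visual % efficacy after ~3 weeks, greenhouse.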

[2] = test system: Stellaria media (STEME); test: A. Herbicidal pre-emergence efficacy, STEME
Summary of the method: as §1

[3] = test system: Veronica persica (VERPE); test: A. Herbicidal pre-emergence efficacy, VERPE; conditions: for Pre-emergence efficacy against VERPE: dosage 80 g/ha
Summary of the method: as §1

[4] = test system: Veronica persica (VERPE); test: B. Herbicidal post-emergence efficacy, VERPE
Summary of the method: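 Weeds grown in sandy loam in greenhouse pots, sprayed at one-leaf stage (2–3 weeks after sowing) with WP or EC formulations as aqueous suspension/emulsion plus 0.5% additive at 600 L/ha water, rates up to 1280 g/ha. Visual efficacy rated about 3 weeks later versus untreated controls (0% = like control, 100% = dead).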

[5] = test system: Setaria viridis (SETVI); test: C. Herbicidal pre-emergence efficacy, SETVI; conditions: scored after about 3 weeks
Summary of the method: (§2)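 Pre-emergence test: formulated compounds sprayed as aqueous suspension or emulsion with 0.5% additive at 600 l/ha onto soil covering sown seeds, at rates corresponding to 320 g/ha or less. After about 3 weeks in greenhouse, efficacy scored visually as percent versus untreated controls (100% = plants dead).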

[6] = test system: Veronica persica (VERPE); test: C. Herbicidal pre-emergence efficacy, VERPE; conditions: 320 g/ha, scored after about 3 weeks
Excerpt: (§3) Seeds of monocotyledonous and dicotyledonous weed plants and crop plants were placed in plastic or organic planting pots and covered with soil. The compounds of the invention, formulated in the form of wettable powders (WP) or as emulsion concentrates (EC), were then applied to the surface of the covering soil as aqueous suspension or emulsion with addition of 0.5% additive at a water application rate equivalent to 600 l/ha (converted). After the treatment, the pots were placed in a greenhouse and kept under good growth conditions for the test plants. After about 3 weeks, the efficacy of the preparations was scored visually in comparison with untreated controls as percentages. For example, • 100% efficacy=plants have died, • 0% efficacy=like untreated control plants.
(§4) Tables C1a to C14b below show the effects of selected compounds of the general formula (I) according to table 1 on various harmful plants at an application rate corresponding to 320 g/ha or less, which were obtained by the experimental procedure mentioned above.

[7] = test system: Viola tricolor (VIOTR); test: C. Herbicidal pre-emergence efficacy, VIOTR
Summary of the method: as §2

[8] = test system: Abutilon theophrasti (ABUTH); test: C. Herbicidal pre-emergence efficacy, ABUTH; conditions: scored after about 3 weeks
Excerpt: as §3, §4

Compound	Pre-emergence efficacy against POAAN ([1]; dosage 320 g/ha) [%]	Pre-emergence efficacy against POAAN ([1]; dosage 1280 g/ha) [%]	Pre-emergence efficacy against STEME ([2]; dosage 320 g/ha) [%]	Pre-emergence efficacy against STEME ([2]; dosage 1280 g/ha) [%]	Pre-emergence efficacy against VERPE in % ([3]; 1280 g/ha) [%]	Post-emergence efficacy against VERPE ([4]; 1280 g/ha) [%]	Pre-emergence efficacy against SETVI ([5]; 320 g/ha) [%]	Pre-emergence efficacy against VERPE [6] [%]	Pre-emergence efficacy against VIOTR in % ([7]; application rate 80 g/ha) [%]	Pre-emergence efficacy against VIOTR in % ([7]; application rate 320 g/ha) [%]	Pre-emergence efficacy against VERPE in % ([3]; 320 g/ha) [%]	Post-emergence efficacy against VERPE ([4]; 80 g/ha) [%]	Post-emergence efficacy against VERPE ([4]; 320 g/ha) [%]	Pre-emergence efficacy against POAAN ([1]; dosage 80 g/ha) [%]	Pre-emergence efficacy against STEME ([2]; dosage 80 g/ha) [%]	Pre-emergence efficacy against ABUTH ([8]; 320 g/ha) [%]	Pre-emergence efficacy against ABUTH ([8]; 80 g/ha) [%]	Pre-emergence efficacy against SETVI ([5]; 80 g/ha) [%]	Pre-emergence efficacy against VERPE [3] [%]
O=S(=O)(CCl)Oc1ccccc1Oc1ncc(Cl)cn1 [Example I-9]	90	100	100	100	100	100	90	100	90	100									
CCS(=O)(=O)Oc1ccccc1Oc1ncc(Cl)cn1 [Example I-16]	100	100	100	100	100	100					90	100	100						
CCCCCS(=O)(=O)Oc1ccccc1Oc1ncc(Cl)cn1 [Example I-24]	100	100	100	100		100	80	90	80	80		90	100						
Cc1cccc(Oc2ncc(Cl)cn2)c1OS(=O)(=O)CCCC(F)(F)F [Example I-28, 2-[(5-Chloropyrimidin-2-yl)oxy]-6-methylphenyl 4,4,4-trifluorobutane-1-sulfonate]	100	100	100	100	100	100					100	100	100	90	90				
O=S(=O)(CCCC(F)(F)F)Oc1c(Br)cccc1Oc1ncc(Cl)cn1 [Example I-30]	100	100	100	100	100	100					100	90	100	90	100				
O=S(=O)(CCC(F)(F)F)Oc1c(Br)cccc1Oc1ncc(Cl)cn1 [Example I-31]	100	100	100	100	100	100					100	90	90	90	90				
C=CCS(=O)(=O)Oc1ccccc1Oc1ncc(Cl)cn1 [Example I-36]		90		90	100	100							90			90			
O=S(=O)(CCC(F)(F)F)Oc1c(Br)cccc1Oc1ncc(F)cn1 [Example I-43]	100	100	100	100	100		100		90	100	100					100	80	100	
Cc1cccc(Oc2ncc(F)cn2)c1OS(=O)(=O)CCC(F)(F)F [Example I-45]	100	100	100	100	100		100		100	100	100			90	90	100	100	100	
Cc1cccc(Oc2ncc(F)cn2)c1OS(=O)(=O)CCCC(F)(F)F [Example I-46]	100	100	100	100	100		100		100	100	90			90	90	100	100	100	90
O=S(=O)(CCC(F)(F)F)Oc1c(F)cccc1Oc1ncc(F)cn1 [Example I-47]	100	100	100	100	100		100		100	100	100			100	100	100	100	100	90
O=S(=O)(CCC(F)(F)F)Oc1c(F)cccc1Oc1ncc(Cl)cn1 [Example I-48]	100	100	100	100	100	90	100		100	100	100		90	90	90	100	100	100	90
O=S(=O)(CCCC(F)(F)F)Oc1c(F)cccc1Oc1ncc(Cl)cn1 [Example I-49]	100	100	100	100	100	90	100		100	100	100			90	100	100	100	100	90
C=CCCS(=O)(=O)Oc1c(F)cccc1Oc1ncc(Cl)cn1 [Example I-50]	90	100	100	100	100	90	100			90	100		90	90		100		100	90
COCCS(=O)(=O)Oc1c(F)cccc1Oc1ncc(Cl)cn1 [Example I-52]	90	100	90	100	100		100		100	100	100				90	100	80		
O=S(=O)(CCCC(F)F)Oc1c(F)cccc1Oc1ncc(Cl)cn1 [Example I-56]	100	100	100	100	100	90	100		100	100	100	90	90	90	100	100	100	100	
